Test results reported in US7183415B2, “Quinoline compound” (Takeda Pharmaceutical Company Limited, priority 2001, dated 2007).

system: SD (Sprague Dawley) rats; assay: Evaluation of antidepressive action by forced swim test; type: in vivo, rat; details: 3 mg/kg body weight, oral, 30 minutes before test, five minutes measured, n=10; control group 30.86±8.71
Procedure: By performing a forced swim test using SD (Sprague Dawley) rats (seven-week-old, male, body weight 233.3–266.9 g, purchased from Japan Clea), the antidepressive action of the compound of the present invention was evaluated.
First, a suspension of the compound of Example 19 in 0.5% methyl cellulose was orally administered to SD rats (n=10) (compound dose: 3 mg/kg body weight). Thirty minutes later, the rats were placed in a pipe (diameter 21 cm, height 50 cm) made of Plexiglass (trade name, made by Rohm & Haas, U.S.A.) containing tap water (water temperature 25±2° C., 30 cm deep). Immobility time of the rats for five minutes thereafter was measured using a digital video camera.
In addition, 0.5% methyl cellulose suspension without the compound was orally administered to SD rats (n=10), and the rats were subjected the forced swim test in the same manner as above and taken as a control group.

Structure (SMILES) | immobility time (seconds, mean±standard deviation)
Cc1c(NC(=O)c2ccc(-c3ccc(F)cc3)cc2)ccc2cc(CN3CCCC3)cnc12 [Example 19, 4′-fluoro-N-[8-methyl-3-(1-pyrrolidinylmethyl)-7-quinolinyl][1,1′-biphenyl]-4-carboxamide] | 15.93 ± 5.62 s

target: T1, SLC-1 expression CHO cell membrane fraction (MCH receptor) (UniProt Q99705); assay: Antagonistic activity of test compound using GTP γ S binding assay; type: biochemical, human/rat; details: inhibition of MCH-stimulated [35S]-GTPγS binding, 25° C., 1 hr, read-out: Inhibitory activity (IC50: nM)
T1 construct: full-length coding regions in pAKKO-111H
Procedure: Using human SLC-1 expression CHO cell clone 57 obtained in Reference Example 1-10 and rat SLC-1 expression CHO cell clone 44 obtained in Reference Example 1-4, membrane fractions were prepared by the following method. In phosphate buffered saline (pH 7.4) supplemented with 5 mM EDTA (ethylenediamine tetraacetic acid) were suspended human and rat SLC-1 expression CHO cells (1×10^8) and centrifuged. Homogenate buffer (10 ml, 10 mM NaHCO3, 5 mM EDTA, pH 7.5) was added to the pellets of the cells and, using Polytron Homogeniser, the mixture was homogenated. The supernatant obtained after centrifugation at 400×g for 15 min was further centrifuged at 100,000×g for 1 hr to give precipitate of the membrane fraction. […]
The antagonistic activity of the test compound was determined as follows. […] Liquid scintillator (50 ml) was added to the glass filter and the residual radioactivity was determined by a liquid scintillation counter. Binding inhibition (%)=(radioactivity upon addition of compound and MCH−radioactivity upon addition of DMSO solution)/(radioactivity upon addition of MCH−radioactivity upon addition of DMSO solution)×100
From the binding inhibition (%), IC50 of the compound was calculated.

IC50 | Structure (SMILES)
6 nM | COc1ccc(-c2ccc(C(=O)Nc3ccc4cc(CN5CCCC5)cnc4c3)cn2)cc1 [Example 8, 6-(4-methoxyphenyl)-N-[3-(1-pyrrolidinylmethyl)-7-quinolinyl]nicotinamide]

system: not given; assay: not given; details: not given

Structure (SMILES) | melting point
COc1ccc(-c2ccc(C(=O)Nc3ccc4cc(CN5CCCC5)cnc4c3)cn2)cc1 [Example 8, 6-(4-methoxyphenyl)-N-[3-(1-pyrrolidinylmethyl)-7-quinolinyl]nicotinamide] | 246 to 248 °C
Cc1c(NC(=O)c2ccc(-c3ccc(F)cc3)cc2)ccc2cc(CN3CCCC3)cnc12 [Example 19, 4′-fluoro-N-[8-methyl-3-(1-pyrrolidinylmethyl)-7-quinolinyl][1,1′-biphenyl]-4-carboxamide] | 220 to 222 °C
Cc1cc2cc(CN3CCC(C(N)=O)CC3)cnc2cc1NC(=O)c1ccc(-c2ccc(F)cc2)cc1 [Example 276, 1-[(7-{[(4′-fluoro-1,1′-biphenyl-4-yl)carbonyl]amino}-6-methyl-3-quinolinyl)methyl]piperidine-4-carboxamide] | 265 °C
Cc1ccc(-c2ccc(C(=O)Nc3ccc4cc(CN5CCCC5)cnc4c3)c(F)c2)cc1 [Example 277, 3-fluoro-4′-methyl-N-[3-(1-pyrrolidinylmethyl)-7-quinolinyl][1,1′-biphenyl]-4-carboxamide] | 173 °C
Cc1ccc(-c2ccc(C(=O)Nc3ccc4cc(CN5CCCC5)cnc4c3F)c(F)c2)cc1 [Example 278, 3-fluoro-N-[8-fluoro-3-(1-pyrrolidinylmethyl)-7-quinolinyl]-4′-methyl[1,1′-biphenyl]-4-carboxamide] | 173 °C

Further lines, results first:

melting point | Structure (SMILES)
208 °C | O=C(Nc1ccc2cc(CN3CCCC3)cnc2c1F)c1ccc(-c2ccc(Cl)cc2)cc1F [Example 279, 4′-chloro-3-fluoro-N-[8-fluoro-3-(1-pyrrolidinylmethyl)-7-quinolinyl][1,1′-biphenyl]-4-carboxamide]
> 220 °C (dec.) | CN1CCc2nc3cc(NC(=O)c4ccc(-c5ccc(Cl)cc5)cc4)ccc3cc2C1 [Example 326, 4′-chloro-N-(2-methyl-1,2,3,4-tetrahydrobenzo[b][1,6]naphthyridin-7-yl)[1,1′-biphenyl]-4-carboxamide]
> 220 °C (dec.) | CN1CCc2nc3cc(NC(=O)c4ccc(-c5ccc(Cl)cc5)cc4F)ccc3cc2C1 [Example 328, 4′-chloro-3-fluoro-N-(2-methyl-1,2,3,4-tetrahydrobenzo[b][1,6]naphthyridin-7-yl)[1,1′-biphenyl]-4-carboxamide]
146 to 147 °C | CCC(=O)Oc1ccc(C(=O)Nc2ccc3cc(CN4CCCC4)cnc3c2C)cc1 [Example 330, 4-({[8-methyl-3-(1-pyrrolidinylmethyl)-7-quinolinyl]amino}carbonyl)phenyl propionate]
156 to 158 °C | CCCC(=O)Oc1ccc(C(=O)Nc2ccc3cc(CN4CCCC4)cnc3c2C)cc1 [Example 331, 4-({[8-methyl-3-(1-pyrrolidinylmethyl)-7-quinolinyl]amino}carbonyl)phenyl butyrate]
